Test system: RA response element (RARE)
Test: RARE luciferase reporter gene assay in Neuro2a cells
Assay type: cell-based, mouse
Settings: Am80 0.2-5 μM, with or without HX630 5 μM, 24 h
Experimental: Since the effective concentration of Am80 in vivo has not been determined, we considered that a relatively high concentration of Am80 should be used in the in vitro study in order to ensure adequate stimulation. […] Moreover, the combination of HX630 (5 μM) with Am80 in the range of 0.2-5 μM also had little effect. Therefore, the concentrations of Am80 and HX630 were both set at 5 μM for the in vitro study.
Neuro2a cells were seeded in 24-well plates (2×10^5 cells/well) and transfected with 0.2 μg of pGL3-RARE-Luc (#13468; Addgene) or pGL3-Luc vector (Promega) and 0.05 μg of Renilla luciferase vector (phRL-TK) (Promega), using Effectene reagent (Qiagen) according to the manufacturer's protocol. Five hours after transfection, cells were exposed to Am80 (5 μM) and/or HX630 (5 μM) in the medium for 24 h. Luciferase activities were determined in cell lysates. Firefly luciferase activity was normalized to that of Renilla luciferase for each well.

`CC1(C)CCC(C)(C)c2cc(NC(=O)c3ccc(C(=O)O)cc3)ccc21` [Am80, 4-{(5,6,7,8-tetrahydro-5,5,8,8-tetramethyl-2-naphthalenyl)carbamoyl}benzoic acid] was tested, and the “RARE-luciferase activity in Neuro2a cells” value was “hardly altered”.
